Data taken from PMC5711494, “Sterol methyltransferase a target for anti-amoeba therapy: towards transition state analog and suicide substrate drug design” (Journal of Lipid Research, 2017).
“Also recorded” adds a separate entry of the source.

Tests used:
[1] = system: Acanthamoeba castellanii trophozoites (strain ATCC 30010); assay: Ac trophozoite growth inhibition and minimum amoebicidal concentration (trypan blue exclusion); type: cell-based; settings: 48 h incubation
Description: Ac strain ATCC 30010 was inoculated (1 × 10^4 cells/ml) into tissue culture T-25 ml flasks, prepared with ATTC media 712 and cultured axenically in 5 ml medium at 25°C. Continuous cultures populated by trophozoites ([…]; the remaining cells were cysts) was maintained by sub-culturing 4–5 day growth arrested cells (1 × 10^6 cells/ml) into fresh medium. Steroidal inhibitor and azole susceptibility assays were performed in 24-well (4 × 6) microtiter plates (3 ml total). Trophozoite assay conditions and preparation of stock solutions made to 1 μg/10 μl and 1 μg/100 μl in DMSO through serial dilution to achieve final inhibitor concentrations of 64, 32, 16, 8, 4, 2, 1, 0.5, 0.25, 0.125, 0.0625, and 0.03125 µg/ml in 1% DMSO as reported previously for voriconazole incubated with Ac ([25]). Growth curves to evaluate treated trophozoites were initiated with 1 × 10^6 cells/ml and incubated for 48 h. Cell number was calculated with the use of a hemocytometer. The percentage of viable trophozoites following exposure to different concentrations of inhibitors was determined by the standard trypan blue exclusion method. Cells stained blue were considered nonviable. […] The IC50 of inhibitors against trophozoite growth was evaluated using GraphPad Prism with default setting (GraphPad Software Inc., CA).

[2] = molecular target: Ac24-SMT (sterol 24-methyltransferase, SMT1) (Acanthamoeba castellanii, UniProt L8GNG7); assay: Inhibition of recombinant Ac24-SMT assayed with native substrate cycloartenol and [methyl-3H3]SAM; type: biochemical; settings: read-out: Ki against 24-SMT (competitive inhibitor); assayed with natural substrate
Ac24-SMT (sterol 24-methyltransferase, SMT1), sequence (L8GNG7 entry or part of it): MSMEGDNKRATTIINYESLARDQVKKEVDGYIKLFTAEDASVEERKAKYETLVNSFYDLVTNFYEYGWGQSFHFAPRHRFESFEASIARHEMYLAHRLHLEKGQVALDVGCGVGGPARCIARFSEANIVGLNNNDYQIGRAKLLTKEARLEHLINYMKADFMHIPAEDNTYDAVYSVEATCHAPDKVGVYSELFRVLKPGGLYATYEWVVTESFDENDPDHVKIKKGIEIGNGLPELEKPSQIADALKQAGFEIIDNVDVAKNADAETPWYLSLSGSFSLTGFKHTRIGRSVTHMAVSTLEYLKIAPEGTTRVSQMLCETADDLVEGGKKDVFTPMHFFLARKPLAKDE
Description: (§1) The SMT constructs were transformed into competent BL21(DE3) cells and transformants selected against 100 µg/ml ampicillin. Expression of the SMT constructs and partial purification of the recombinant proteins followed the procedure described previously ([19]). Briefly, a single colony for 24-SMT and 28-SMT were grown overnight in an orbital shaker (250–300 rpm) at 37°C in Luria broth containing ampicillin and then reinoculated in fresh medium at 1 in 10 dilution. […] In one tube, cells were induced by addition of isopropyl thio-galactoside at a final concentration of 1 mM and in the other tube, were un-induced. Cells were harvested 2 and 4 h after induction and an equal number of cells (as calculated by OD @600 nm) from induced (+) and un-induced (−) cultures were boiled with 1X Laemmli’s buffer and analyzed by SDS-PAGE (12%). […] Total protein concentrations were determined by Bradford dye-binding procedure with bovine γ-globulin as standard. […] Incubation mixtures were saponified with methanolic potassium hydroxide and extracted with hexane (3 × 1 ml) and concentrated to dryness providing the nonsaponifiable lipid fraction; radioactivity was determined by liquid scintillation counting. […] Controls containing radioactive SAM and no sterol used to background subtract radioactivity in these treatments was less than 500 dpm. […]

[3] = molecular target: Ac28-SMT (sterol 28-methyltransferase, SMT2) (Acanthamoeba castellanii, UniProt L8GKC5); assay: Inhibition of recombinant Ac28-SMT assayed with native substrate 24(28)-methylene lophenol and [methyl-3H3]SAM; type: biochemical
Ac28-SMT (sterol 28-methyltransferase, SMT2), sequence (L8GKC5 entry or part of it): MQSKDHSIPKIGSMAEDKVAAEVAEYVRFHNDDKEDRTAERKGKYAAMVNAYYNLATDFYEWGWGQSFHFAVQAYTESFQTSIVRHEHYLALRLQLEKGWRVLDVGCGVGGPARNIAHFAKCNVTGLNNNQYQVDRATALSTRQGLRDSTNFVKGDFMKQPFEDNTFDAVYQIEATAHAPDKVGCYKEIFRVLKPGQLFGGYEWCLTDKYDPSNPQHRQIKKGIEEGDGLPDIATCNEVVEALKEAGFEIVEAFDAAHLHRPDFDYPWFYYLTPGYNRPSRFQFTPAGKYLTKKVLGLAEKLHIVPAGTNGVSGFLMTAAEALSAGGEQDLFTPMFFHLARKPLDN
Description: as §1

Ac28-SMT = assay: Substrate kinetics and product analysis with recombinant Ac28-SMT; type: biochemical, Acanthamoeba castellanii; settings: incubated with SAM cosubstrate
Description: The SMT constructs were transformed into competent BL21(DE3) cells and transformants selected against 100 µg/ml ampicillin. Expression of the SMT constructs and partial purification of the recombinant proteins followed the procedure described previously ([19]). […] In one tube, cells were induced by addition of isopropyl thio-galactoside at a final concentration of 1 mM and in the other tube, were un-induced. Cells were harvested 2 and 4 h after induction and an equal number of cells (as calculated by OD @600 nm) from induced (+) and un-induced (−) cultures were boiled with 1X Laemmli’s buffer and analyzed by SDS-PAGE (12%). Gel was stained with Coomassie Brilliant Blue (0.2%) to establish the molecular weight and purity of the expressed protein. Total protein concentrations were determined by Bradford dye-binding procedure with bovine γ-globulin as standard. To determine the catalytic activity of the recombinant proteins, enzyme assays were carried out using soluble bacterial extract (100,000 g fraction) in 9 ml test tubes containing a total of 600 µl assay volume for 45 min (initial velocity conditions). The assay buffer contained 20 mM phosphate buffer in 5% (v/v) glycerol at pH 7.5, sterol acceptor emulsified in 12 µl Tween 80 (1.2 g/l), and the substrate tested over the concentration range 5 to 150 µM against 1.2 mg of total protein. The reaction was initiated by the addition of saturating levels of [methyl-^3H3]SAM, 0.9 µCi, at 150 µM. Incubation mixtures were saponified with methanolic potassium hydroxide and extracted with hexane (3 × 1 ml) and concentrated to dryness providing the nonsaponifiable lipid fraction; radioactivity was determined by liquid scintillation counting. […]

Ac24-SMT = assay: Covalent labeling of Ac24-SMT with DHL and 3H-SAM, SDS-PAGE gel slice counting; type: binding, Acanthamoeba castellanii; settings: 45 min, 35°C, SDS-PAGE gel slices
Description: For 24-SMT labeling, partially pure recombinant enzyme obtained from 0.25 salt gradient fraction after Q-chromatography and desalted with buffer exchange (as reported in reference) was generated as a reference specimen of cloned SMT migrating at ∼39 kDa indicated by a protein ladder (Bio-Rad). Protein was stained with Coomassie Brilliant Blue R 250. […] After filtration and concentration, 22 µg total protein was loaded on 12% SDS-PAGE gel against a protein ladder (Bio-Rad) that ranged from 15 to 100 kDa. Next, five bands were excised from the gel corresponding to approximate molecular masses that range between 1) 15–25 kDa, 2) 25–35 KDa, 3) 35–45 kDa, 4) 45–55 kDa, and 5) 55–75 kDa, placed into a vial of 50% hydrogen peroxide, and left overnight at 60°C for digestion ([29]). To these vials was added scintillant and the radioactivity (^3H in dpm) measured by liquid scintillation counting.

CC(CCC=C1CC1)C1CC[C@@]2(C)C3=C(CCC12C)C1(C)CCC(O)C(C)(C)C1CC3 (stereo partly shown) [DHL, 26,27-dehydrolanosterol]
MAC (complete inhibition of growth, minimum amoebicidal concentration) [1]: 15 µM | IC50 ([1]; Acanthamoeba castellanii, ATCC30010, Ac trophozoites): 6 µM | Ki [2]: 16 µM | kinact/Ki against 28-SMT [3]: effectively zero | Ki ([3]; read-out: Ki against 28-SMT (competitive inhibitor), assayed with natural substrate): 54 µM | activity / methyl product formation as substrate of Ac28-SMT (Ac28-SMT): not productively bound; also recorded: no activity was observed; also recorded: no methyl products were detected | radioactivity associated with protein band of ∼39 kDa (Ac24-SMT): < 90%
